Measurements reported in patent US8993515B2, “Peptidomimetics comprising N-amino cyclic urea residues and uses thereof” (Valorisation-Recherche, Limited Partnership, priority 2012, dated 2015).
Residues, ends and D or L forms follow the SMILES beside them.

Legend:
human TF-1 cells = experiment: IL-1β-induced thymocyte (TF-1) proliferation, CyQUANT NF dye; assay type: cell-based; conditions: peptide 1 μM; human IL-1β 25 ng/mL; 48 h
Procedure: Immune cell proliferation was assessed by DNA intercalation of CyQUANT NF® fluorescent dye (Invitrogen, Carlsbad, Calif., USA). Essentially, human TF-1 cells (CRL-2003, American Type Culture Collection) were cultured in complete RPMI 1640 (WISENT Inc., Montréal, Quebec, Canada) supplemented with human GM-CSF (2 ng/ml, PeptroTech, Rocky Hill, N.J., USA). Cells (passage 5 and at least 85% viable, as verified by trypan blue dying) were reincorporated into RPMI 1640 medium deprived of phenol red (Gibco Invitrogen®, Carlsbad, Calif., USA) and of growth factors [i.e. fetal bovine serum (FBS) and GM-CSF] for 18 h and split (5×10^3 cells in 200 μL/well) into 96-well non-adherent flat bottom culture plates (Sarstedt®, Nümbrecht, Germany). Following 15 min pre-incubation with peptide or peptidomimetic (1 μM), the cells were treated with human IL-1β (25 ng/mL, PeproTech®, Rocky Hill, N.J., USA) and re-incubated. After 48 h, the cells were centrifuged for 7 min at 300 g, reincorporated into Hank's Buffered Salt Solution (1×HBSS, 50 μL/well, Gibco Invitrogen®, Carlsbad, Calif., USA) and transferred into a 96-well polystyrene black plate (Corning Incorporated, Corning, N.Y., USA). An additional 50 μL solution made of CyQUANT NF® dye (component A, 1×) and CyQUANT NF™ delivery agent (component B, 1×) in 1×HBSS was added to the cells in each well, which were covered with aluminum foil and incubated for 45 min. Fluorescence intensity was measured using a microplate reader (Perkin Elmer Wallac Envision® 2104; Perkin Elmer®, California, USA) with excitation at 485 nm and emission detection at 530 nm (FITC 485 and FITC 531 filters, respectively). Hexaplicate experiments were repeated three times and results were analyzed by one-way analysis of variance (ANOVA) factoring for treatments, and data are presented as mean±standard error of the mean (SEM).

[1] = system: NF-κB activation in HEK Blue IL-33/IL-1β sensor cells; experiment: HEK Blue SEAP reporter gene assay of NF-κB activation; assay type: cell-based; conditions: peptide 1 μM; human IL-1β 2.5 ng/mL; 24 h
Procedure: Activation of the NF-κB pathway upon interaction with IL-1β (or IL-33) receptor complex at the membrane was assessed via HEK-Blue SEAP reporter gene assay (InvivoGen®, California, USA). Basically, HEK Blue IL-33/IL-1β sensor cells were cultured in growth medium made of complete Dulbecco's modified Eagle medium (DMEM; 4.5 g/L glucose, 2 mM L-glutamine, […], 10% fetal bovine serum, 50 U/mL penicillin, 50 μg/mL streptomycin; Gibco Invitrogen®, Ontario, Canada) supplemented with selection antibiotics (30 μg/mL Blasticidin®, 200 μg/mL HygroGold® and 100 μg/mL Zeocin®; InvivoGen, California, USA). Upon reaching almost 70% confluency, HEK Blue cells were reincorporated into complete DMEM medium and split (2.5×10^4 cells in 180 μL/well) into 96-well membrane-treated flat bottom culture plates (Plate #3595, Corning Life Sciences, Massachusetts, USA). Cells were pretreated with 10 μL of peptide or peptidomimetic (1 μM) for 15 min., after which 10 μL of human IL-1β (2.5 ng/mL, PeproTech®, Rocky Hill, N.J., USA) was added. Following 24 h of incubation, 40 μL of the cells supernatant was added to a UV-transparent 96-well plate (Plate #3635, Corning Life Sciences®, Massachusetts, USA) already filled with 160 μL of resuspended Quanti-Blue® dye (1×, InvivoGen, California, USA). The plate was covered and incubated for 20 min. The level of SEAP was measured by reading absorbance (or optical density, OD) at 620 nm using a multiplate reader equipped with a monochromator (Perkin Elmer Wallac Envision® 2104; Perkin Elmer®, California, USA). Hexaplicate results were normalized over complete DMEM background signal and analyzed by one-way analysis of variance (ANOVA) factoring for treatments, and data are presented as mean±standard error of the mean (SEM).

Row | Compound | diminished IL-1β-induced proliferation (human TF-1 cells) [%] | inhibition of NF-κB activation (OD620) [1] [%]
1 | CC(C)C[C@@H](NC(=O)[C@@H](CCC(=O)O)NC(=O)[C@@H](C(C)C)N1CCN(NC(=O)[C@@H](Cc2ccc(O)cc2)NC(=O)[C@H](N)CCCNC(=N)N)C1=O)C(=O)N[C@H](C)C(N)=O [[Nai^3]-101.10, D-Arg-D-Tyr-Nai-D-Val-D-Glu-D-Leu-D-Ala-NH2] (HELM PEPTIDE1{[dR].[dY].[CC(C)[C@H](C(=O)[*:2])N1CCN(N[*:1])C1=O].[dE].[dL].[dA].[am]}$$$$V2.0) | 77 | 65
2 | D-Arg-D-Tyr-D-Thr-D-Val-DGlu-D-Leu-D-Ala-NH2 [101.10, reference compound] | 15 | 77
3 | Kineret: a competitive IL-1R antagonist | – | 100
